Measured values reported in patent US7745152B2, “Method for determining genotoxicity” (priority 2004, dated 2010).
Several values for one entry are separate records, joined by “and”; a condition that tells them apart may be missing. Equal values may be shown once.

Key:
C2C12 cells [1] = conditions: mouse
C2C12 cells [2] = system: C2C12 cells
Procedure: (§1) Three independent replicates were generated for each drug and time point. Sample processing was carried out according to protocols described in the Affymetrix Expression Analysis Technical Manual. Briefly, total RNA was isolated from cells by the acid guanidinium thiocyanate-phenol-chloroform extraction method (Trizol®, Invitrogen, Carlsbad, Calif.). Twice purified poly(A+) RNA was isolated and reverse transcribed using a T7-promoter coupled oligo(dT) primer, followed by in vitro transcription. The labeled samples were applied to the Affymetrix Murine Genome MOE430 set and were hybridized overnight at 45° C./60 rpm, washed using a FS450 Fluidics station, and scanned on a GS3000 scanner. The resulting image files were analyzed using Affymetrix software (Microarray Analysis Suite version 5.0).
(§2) To measure the effect of drug treatment on cellular gene expression, replicate data obtained from each drug and time point were compared with replicates for vehicle-matched controls using the Student t-test. The gene expression levels were Log transformed before applying the Student t-test. The fold change of the average expression level between the control and drug-treated cells was also calculated. […] A gene was considered expressed if the Affymetrix software determined that the gene was “present” in two out of the three replicates. This ensured that true expression changes were identified, and could be distinguished from background variability. Second, the calculated expression change for each of five tested drugs was at least 2 fold, and the calculated p-value for the expression change using the Student t-test was less than 0.01.

C2C12 cells [3] = experiment: C2C12 myogenic differentiation after MMS exposure with siRNA transfection; conditions: 75 μM MMS, 24 hours, then differentiation media, 72 hours
C2C12 cells [4] = experiment: Genomic assay: gene expression analysis (Affymetrix Murine Genome MOE430) in C2C12 cells induced to differentiate
Procedure: as §1, §2

COS(C)(=O)=O [Methanesulfonate methyl ester (MMS), Methanesulfonate methyl ester]
Lowest effective dose (C2C12 cells [1]): 0.002 µg/mL | Fold change in expression: Ephx1, Epoxide hydrolase 1 (microsomal xenobiotic hydrolase) (C2C12 cells [2]): 2.10 fold | Fold change in expression: Hgf, Hepatocyte growth factor (scatter factor) (C2C12 cells [2]): 2.20 fold | C2C12 cell differentiation into myotubes after genotoxin exposure (C2C12 cells [3]): completely inhibited | Fold change in expression: 0610013D04 Rik, RIKEN cDNA (C2C12 cells [4]): 2.60 fold | Fold change in expression: 1600013K19 Rik, RIKEN cDNA (C2C12 cells [4]): 0.62 fold | Fold change in expression: 2610005B21 Rik, RIKEN cDNA (C2C12 cells [4]): 0.53 fold | Fold change in expression: 2610019I03 RIK, RIKEN cDNA (C2C12 cells [4]): 0.43 fold | Fold change in expression: 2610509G12 Rik, RIKEN cDNA (C2C12 cells [4]): 0.55 fold | Fold change in expression: 2810417H13 Rik, RIKEN cDNA (C2C12 cells [4]): 0.48 fold | Fold change in expression: 4833427G06 Rik, RIKEN cDNA (C2C12 cells [4]): 3.70 fold | Fold change in expression: 6530401L14 Rik, RIKEN cDNA (C2C12 cells [4]): 0.39 fold | Fold change in expression: 9030617O03 Rik, RIKEN cDNA (C2C12 cells [4]): 2.40 fold | Fold change in expression: Anxa8, Annexin A8 (C2C12 cells [4]): 2.50 fold | Fold change in expression: Asflb, ASF1 anti-silencing function 1 homolog B (Saccharomyces) (C2C12 cells [4]): 0.47 fold | Fold change in expression: Birc5, Baculoviral IAP repeat-containing 5 (C2C12 cells [4]): 0.51 fold | Fold change in expression: Brca1, Breast cancer 1 (C2C12 cells [4]): 0.47 fold | Fold change in expression: Calmbp1, Calmodulin binding protein 1 (C2C12 cells [4]): 0.30 fold | Fold change in expression: Capn6, Calpain 6 (C2C12 cells [4]): 0.60 fold | Fold change in expression: Ccna2, Cyclin A2 (C2C12 cells [4]): 0.46 fold | Fold change in expression: Ccng1, Cyclin G1 (C2C12 cells [4]): 2.40 fold | Fold change in expression: Cilp, Cartilage intermediate layer pro (C2C12 cells [4]): 0.57 fold | Fold change in expression: Cks2, CDC28 protein kinase regulatory subunit 2 (C2C12 cells [4]): 0.59 fold | Fold change in expression: D4Ertd421e, DNA segment, Chr 4, ERATO Doi 421, expressed (C2C12 cells [4]): 0.44 fold | Fold change in expression: Dda3-pending, Differential display and activated by p53 (C2C12 cells [4]): 3.70 fold | Fold change in expression: E2f7, E2F transcription factor 7 (C2C12 cells [4]): 0.55 fold | Fold change in expression: E030024M05 Rik, RIKEN cDNA (C2C12 cells [4]): 2.00 fold | Fold change in expression: E130315B21 Rik, RIKEN cDNA (C2C12 cells [4]): 0.64 fold | Fold change in expression: Fbxo5, f-box only protein 31 (C2C12 cells [4]): 0.42 fold | Fold change in expression: Foxm1, Forkhead box M1 (C2C12 cells [4]): 0.41 fold | Fold change in expression: Gmnn, Geminin (C2C12 cells [4]): 0.54 fold | Fold change in expression: Gnpi, Glucosamine-6-phosphate deaminase (C2C12 cells [4]): 1.60 fold | Fold change in expression: Hmgb2, High mobility group box 2 (C2C12 cells [4]): 0.56 fold | Fold change in expression: Hmgb3, High mobility group box 3 (C2C12 cells [4]): 0.45 fold | Fold change in expression: Hmmr, Hyaluronan mediated motility receptor (RHAMM) (C2C12 cells [4]): 0.36 fold | Fold change in expression: Kifl1, Kinesin 11 (C2C12 cells [4]): 0.43 fold | Fold change in expression: Lek1, Leucine, glutamic acid, lysine family 1 protein (C2C12 cells [4]): 0.36 fold | Fold change in expression: Ly6e, Lymphocyte antigen 6 complex, locus E (C2C12 cells [4]): 1.80 fold | Fold change in expression: M-phosph1, M-phase phosphoprotein (C2C12 cells [4]): 0.27 fold | Fold change in expression: MGC:32192, Mus musculus cDNA clone MGC: 32192 IMAGE: 5006129 (C2C12 cells [4]): 0.46 fold | Fold change in expression: Mad2l1, MAD2 (mitotic arrest deficient, homolog)-like 1 (yeast) (C2C12 cells [4]): 0.43 fold | Fold change in expression: Mad3, Max dimerization protein 3 (C2C12 cells [4]): 0.52 fold | Fold change in expression: Mcm3, Minichromosome maintenance deficient 3 (Saccharomyces) (C2C12 cells [4]): 0.56 fold | Fold change in expression: Mcmd4, Minichromosome maintenance deficient 4 homolog (C2C12 cells [4]): 0.57 fold | Fold change in expression: Mki67, Antigen identified by MAb Ki67 (C2C12 cells [4]): 0.31 fold | Fold change in expression: Mmhead, Mus musculus 15 day embryo head cDNA clone (C2C12 cells [4]): 3.00 fold | Fold change in expression: Nos3, Nitric oxide synthase 3, endothelial cell (C2C12 cells [4]): 1.90 fold | Fold change in expression: Np95, Nuclear protein 95 (C2C12 cells [4]): 0.41 fold | Fold change in expression: Nusap1, Nucleolar and spindle associated protein 1 (C2C12 cells [4]): 0.48 fold | Fold change in expression: Osbp16, Oxysterol binding protein-like 6 (C2C12 cells [4]): 2.20 fold | Fold change in expression: Pbk, PDZ binding kinase (C2C12 cells [4]): 0.46 fold | Fold change in expression: Pcna, Proliferating cell nuclear antigen (C2C12 cells [4]): 0.60 fold | Fold change in expression: Phex, Phosphate regulating neutral endopeptidase (X chromosome) (C2C12 cells [4]): 2.20 fold | Fold change in expression: Plf, Proliferin (C2C12 cells [4]): 2.60 fold | Fold change in expression: Pola1, DNA polymerase alpha 1, 180 kDa (C2C12 cells [4]): 0.37 fold | Fold change in expression: Prc1, Protein regulator of cytokinesis 1 (C2C12 cells [4]): 0.44 fold | Fold change in expression: Prelp, Proline arginine-rich end leucine-rich repeat (C2C12 cells [4]): 0.19 fold | Fold change in expression: Prim1, DNA primase, p49 subunit (C2C12 cells [4]): 0.51 fold | Fold change in expression: Rad51ap1, RAD51-associated protein 1 (C2C12 cells [4]): 0.45 fold | Fold change in expression: Rbl1, Retinoblastoma-like 1 (p107) (C2C12 cells [4]): 0.59 fold | Fold change in expression: Serpine1, Ser (or Cys) proteinase inhibitor, clade E, member 1 (C2C12 cells [4]): 0.58 fold | Fold change in expression: Sesn2, Sestrin 2 (C2C12 cells [4]): 5.30 fold | Fold change in expression: Shcbp1, Shc SH2-domain binding protein 1 (C2C12 cells [4]): 0.37 fold | Fold change in expression: Slc19a2, Solute carrier family 19 (thiamine transporter), member 2 (C2C12 cells [4]): 2.70 fold and 2.30 fold | Fold change in expression: Slc35a5, Solute carrier family 35, member A5 (C2C12 cells [4]): 2.60 fold | Fold change in expression: Smc2l1, SMC2 structural maintenance of chromosomes 2-like 1 (C2C12 cells [4]): 0.49 fold | Fold change in expression: Stk18, Serine/threonine kinase 18 (C2C12 cells [4]): 0.49 fold | Fold change in expression: Tacc3, Transforming, acidic coiled-coil containing protein 3 (C2C12 cells [4]): 0.48 fold | Fold change in expression: Tagln, Transgelin (smooth muscle 22 protein) (C2C12 cells [4]): 0.47 fold | Fold change in expression: Tk1, Thymidine kinase 1 (C2C12 cells [4]): 0.46 fold | Fold change in expression: Top2a, Topoisomerase (DNA) II alpha (C2C12 cells [4]): 0.37 fold | Fold change in expression: Trp53inp1, Transformation related protein, 53 inducible nuclear protein 1 (C2C12 cells [4]): 2.90 fold | Fold change in expression: Usp30, Ubiquitin specific protease 30 (C2C12 cells [4]): 3.70 fold | Fold change in expression: Wig1, Wild-type p53-induced gene 1 (C2C12 cells [4]): 2.40 fold
